Measurements reported in patent US20170215419A1, “ANTHRANILAMIDE SEED TREATMENT COMPOSITIONS AND METHODS OF USE” (priority 2014, published 2017).

Key:
black cutworms [1] = assay: Cutworm mortality and residual control, leaf feeding bioassay on leaves from treated corn seed (Table 3); type: in vivo, Agrotis ipsilon
Protocol: (§1) Efficacy of chlorantraniliprole against high pressure of black cutworms, and plant stand protection (15 DAP) was tested (FIG. 5). In addition, efficacy of chlorantraniliprole for healthier stand and longer seedling protection against black cutworms (9 DAI) was also tested (FIG. 6). See also Tables 3 and 4 for increased mortality rates of cutworms with chlorantraniliprole alone and in combination with other insecticides. Mortality of 3rd instar black cutworms, which were exposed to corn leaf samples in in-vivo leaf feeding bioassays, was recorded at specific evaluation dates. The leaf samples were collected from treated corn seed according to the treatment in Tables 3-4.
(§2) All treatments included a combination of fungicides (Fludioxonil, Mefenoxam, Azoxystrobin, Thiabendazole). Soil Texture was fine clay loam; insect species: Agrotis ipsilon; infestation: 2, 3rd instar larva/plant; Plot size: 6 rows×20 feet; Seeding rate: 39,000/acre; Experimental design: Randomized Complete Block (RCB); 9 trtms×4 rep.

black cutworms [2] = assay: Black cutworm mortality after 10 DAI, leaf feeding bioassay (Table 4); type: in vivo, Agrotis ipsilon
Protocol: as §1

wireworm [3] = assay: Corn yield, stand and runts on fields with wireworm pressure (Tables 5, 6); type: in vivo; conditions: for Yield bu/ac: 250 μg AI/seed
wireworm [4] = assay: Field efficacy against wireworm and impact on corn yield, vigor and stand (FIG. 1, 2); type: in vivo
Protocol: Efficacy of chlorantraniliprole against wireworm (30 DAP) and impact on corn yield were tested (FIG. 1) based on data from 4 Locations. Unless indicated otherwise in this Example or in any other Example herein, “BASE ST” included Fludioxonil, Mefenoxam, Azoxystrobin, Thiabendazole (fungicides), Thiamethoxam (insecticide) and biological amendments (B. subtilis, and B. simplex). The BASE ST may also include other fungicides.
Efficacy of chlorantraniliprole was also tested against high wireworm pressure locations for plant vigor and yield and stand protection (FIG. 2 A-B). “FST” indicates fungicide seed treatment.
The chlorantraniliprole was applied at a concentration of 0.25 mg ai/seed and other commercially available insecticides and/or fungicides were applied at the labeled rates. […] In an embodiment, the BASE ST included thiamethoxam at 250 μg AI/seed.

wireworms = assay: Growth chamber wireworm bioassay on treated corn seed (FIG. 9); type: in vivo, Melanotus spp.; conditions: 250 to 750 μg AI/seed; corn at V3-V4; vs untreated check
Protocol: In addition, the efficacy of corn seed treated with chlorantraniliprole to protect seeds and seedlings from soil pests such as wireworms was determined at a growth chamber. A total of 8 repetitions were conducted and the following evaluations were observed:
Evaluations: 1. Emergence; 2. Wireworm damaged plants; 4. Wireworm mortality; 5. Fresh plan weight
Bioassays were conducted in a growth chamber in using field-collected Melanotus spp. wireworms. […] weighted wireworms were individually placed into plastic pots containing filtered field-collected soil and one corn seed for a total of 48 wireworms in 8 pots for each treatment The containers were maintained at 20±2° C., 40 to 70% RH, and a photoperiod of 10:14 (L:D), and were watered daily.
The following seed treatment combinations were used and the results are shown in FIG. 9: Chlorantraniliprole at 250 to 750 μg AI/seed; thiamethoxam (IST) at 250 μg AI/seed; and clothianidin (+Bacillus firmus 1-1582) at 1250 μg AI/seed.

white grub = assay: Efficacy against white grub and impact on corn yield (FIG. 3, 4); type: in vivo, Japanese Beetle larvae; conditions: added to BASE ST, compared to BASE ST alone
black cutworms [5] = assay: Field efficacy against high pressure of black cutworms, plant stand protection (FIG. 5, 6); type: in vivo, Agrotis ipsilon
Protocol: as §1, §2

[6] = seed treatment 250 μg AI/seed, 3rd instar black cutworms on corn leaf samples
[7] = seed treatment 250 μg AI/seed, residual control
[8] = seed treatment 500 μg AI/seed (clothianidin 500)
[9] = Table 6, fields with constant wireworm pressure, N = 7
[10] = added to BASE ST, compared to FST alone, high wireworm pressure

Compound: CNC(=O)c1cc(Cl)cc(C)c1NC(=O)c1cc(Br)nn1-c1ncccc1Cl [Chlorantraniliprole, 3-bromo-N-[4-chloro-2-methyl-6-[(methylamino)carbonyl]phenyl]-1-(3-chloro-2-pyridinyl)-1H-pyrazole-5-carboxamide]
- Mortality % 12 DAP (black cutworms [1]; [6]): 100.00%
- Mortality % 39 DAP (black cutworms [1]; [7]): 32.95%
- Mortality % 12 DAP (black cutworms [1]; [8]): 100.00%
- Mortality % 39 DAP (black cutworms [1]; [8]): 31.25%
- Mortality % 12 DAP (black cutworms [1]; seed treatment 750 μg AI/seed): 100.00%
- Mortality % 39 DAP (black cutworms [1]; seed treatment 750 μg AI/seed): 21.11%
- Mortality % (black cutworms [2]; seed treatment 250 μg AI/seed): 100.00%
- Mortality % (black cutworms [2]; [8]): 100.00%
- Mortality % (black cutworms [2]; seed treatment 750 μg AI/seed): 100.00%
- Yield bu/ac (wireworm [3]; Table 5, fields with wireworm pressure): 172.3 bu/ac
- Yield bu/ac (wireworm [3]; [9]): 164.3 bu/ac
- corn grain yield (wireworm [3]; locations with wireworm infestations, chlorantraniliprole 250 to 750 μg AI/seed alone or with thiamethoxam 250 μg AI/seed): increased corn grain yield
- corn yield (wireworm [4]; 0.25 mg ai/seed added to BASE ST, compared to BASE ST alone): yield increase
- wireworm count per 10 plants (wireworm [4]; 0.25 mg ai/seed added to BASE ST, compared to BASE ST alone, 30 DAP, 4 locations): significantly reduced
- plant vigor (wireworm [4]; [10]): significantly increased
- stand protection (wireworm [4]; [10]): protected stand
- yield (wireworm [4]; added to BASE ST, compared to FST alone, high wireworm pressure (FIG. 2A)): increased significantly
- fresh plant weight (wireworms): significantly higher plant weight than the untreated check/control
- grain yield (white grub): increased grain yield
- white grub count per 10 plants (white grub; 30 DAP, 3 locations): significantly reduced
- stand and seedling protection against black cutworms (black cutworms [5]; 9 DAI (FIG. 6)): increased healthier stand and longer seedling protection
- reduction in plant mortality (black cutworms [5]; compared to FST alone, black cutworm): 62%
- black cutworm damage to corn plants (black cutworms [5]; high black cutworm pressure, 15 DAP): significantly reduced

Compound: CN/C(=N\[N+](=O)[O-])NCc1cnc(Cl)s1 [Clothianidin, reference compound]
- Mortality % 12 DAP (black cutworms [1]; [8]): 97.92%
- Mortality % 39 DAP (black cutworms [1]; [8]): 25.00%
- Mortality % (black cutworms [2]; [8]): 93.75%

Compound: CN1COCN(Cc2cnc(Cl)s2)/C1=N\[N+](=O)[O-] [Thiamethoxam, reference compound]
- Mortality % 12 DAP (black cutworms [1]; [6]): 95.83%
- Mortality % 39 DAP (black cutworms [1]; [7]): 31.25%
- Mortality % (black cutworms [2]; seed treatment 250 μg AI/seed): 22.92%
- Yield bu/ac (wireworm [3]; [9]): 173.3 bu/ac
- runts (wireworm [3]; seedling stage, wireworms, each active at 250 μg AI/seed): 8.8%
